Data set [1] has as its system MRSA ATCC 43300. Briefly: MIC, double dilution method, MRSA ATCC 43300. The class given is cell-based, Methicillin-resistant Staphylococcus aureus. The note with it: Staphylococcus aureus, 24 h, MRSA ATCC 43300, Gram-positive; 24 h culture.
In data set [2] the test system is C. albicans CMCC 98001. The data set is described as follows: MIC, double dilution method, C. albicans CMCC 98001. The class given is cell-based, Candida albicans. Particulars: for MIC: C. albicans CMCC 98001, fungus, 24 h culture.
Data set [3] has as its system E. coli 1924. The data set is described as follows: MIC, double dilution method, E. coli 1924. Particulars: Escherichia coli, 1924, 24 h. The data set is classed as cell-based, Escherichia coli.
Data set [4] concerns Staphylococcus aureus ATCC 6538. The data set is described as follows: Minimum bactericidal concentration, S. aureus ATCC 6538. The note with it: ATCC6538, 99.9% reduction of inoculum. The data set is classed as cell-based. The method, then: (§1) Moreover, minimum bactericidal concentration (MBC (μg/mL)) or minimum fungicidal concentration (MFC (μg/mL)) assays were performed for the promising compounds 10d, 10f, 10g and 10h against Staphylococcus aureus ATCC 6538, Staphylococcus aureus 4220, Staphylococcus aureus ATCC 43300 and Candida albicans CMCC 98001, and shown in Table 2.
(§2) The minimum bactericidal concentration (MBC) or minimum fungicidal concentration (MFC) was determined as described, following the MIC assay, by subculturing 5 μL of the compounds from wells showing no visible growth onto fresh agar plates. The plates were incubated at 37 °C for 24 h.

The test system of data set [5] is S. aureus ATCC 6538. The data set is described as follows: MIC, double dilution method, S. aureus ATCC 6538. The data set is classed as cell-based. The note with it: Staphylococcus aureus, ATCC6538, 24 h.
In data set [6] the test system is S. aureus 4220. The data set is described as follows: MIC, double dilution method, S. aureus 4220. The data set is classed as cell-based. Particulars: Staphylococcus aureus, 4220, 24 h.
Data set [7] is described as follows: Cytotoxicity, MTT assay, L-02. The data set is classed as cell-based. The note with it: human, L-02 cells (normal liver cell line), 48 h incubation. The method, then:
(§3) The cytotoxicity of the most bioactive compounds 10f, 10g and 10h were evaluated in vitro against the HepG2 cell line (human hepatocellular carcinoma cell line) and the L-02 cell line (normal liver cell line) by 3-(4,5-dimethylthiazol-2-yl)-2,5-diphenyltetrazolium bromide (MTT) assay. The obtained results were presented by the inhibitory concentration that reduces the viability of the cell population to 50% of the maximal viability (IC50).
(§4) HepG2 cells and L-02 cells (ATCC, Manassas, VA, USA) were plated in 96-well plates at a density of 30–40% to ensure exponential growth throughout the experimental period, and then allowed to adhere for 1 day. Next, the cells were treated with eight concentrations (100, 50, 25, 10, 5, 1, 0.1, and 0.01 μmol/L) of each compound. After 48 h of incubation, MTT solution was added to each well at a final concentration of 2 mg/mL and incubated for an additional 4 h. Next, the MTT solution was removed and […] of dimethyl sulphoxide (DMSO)/well was added (Sigma-Aldrich, St. Louis, MO, USA). The plates were shaken vigorously at RT to ensure complete solubilization, and absorption at 492 nm was determined by a microplate reader (BioTek Instruments, Inc., Winooski, VT, USA). At least three independent experiments were conducted.
For orientation: Tetrazolium assays rely on reduction of a dye to a coloured formazan, in cell work by metabolically active cells.

A short description of data set [8]: Cytotoxicity, MTT assay, HepG2. The class given is cell-based. Particulars: human, HepG2 cells, 48 h incubation. As to the method: as §3, §4
Data set [9] relates to E. coli ATCC 25922. The data set is described as follows: MIC, double dilution method, E. coli ATCC 25922. The class given is cell-based. Particulars: Escherichia coli, ATCC25922, 24 h.
Data set [10] relates to P. aeruginosa CMCC 10211. The data set is described as follows: MIC, double dilution method, P. aeruginosa CMCC 10211. The data set is classed as cell-based. Particulars: Pseudomonas aeruginosa, CMCC10211, 24 h.
For data set [11], the system named is Candida albicans CMCC 98001. Briefly: Minimum fungicidal concentration, C. albicans CMCC 98001. The class given is cell-based. The method, then:
as §1, §2

The test system of data set [12] is four bacteria and three fungi. Also noted: method as in doi:10.1007/s11164-013-1403-x. The note with it: cited from earlier work.
Data set [13] deals with three Gram-positive bacteria strains and two Gram-negative bacteria strains. Also noted: method as in PMID 29968851. The note with it: cited from earlier work.
Data set [14] has as its system Staphylococcus aureus. Also noted: method as in PMID 28946655. Particulars: cited from earlier work.
The test system of data set [15] is E. coli ATCC 25,922. Details: method as in PMID 33839249. The note with it: cited from earlier work.
Data set [16] concerns Staphylococcus aureus ATCC 43300. The data set is described as follows: Minimum bactericidal concentration, S. aureus ATCC 43300. The class given is cell-based. The note with it: ATCC43300. As to the method: as §1, §2
Data set [17] concerns Gram-positive and Gram-negative bacterial strains. Also noted: method as in PMID 27318539. Particulars: most of the tested Gram-positive and Gram-negative bacterial strains; cited from earlier work.
Data set [18] deals with Staphylococcus aureus 4220. The data set is described as follows: Minimum bactericidal concentration, S. aureus 4220. The note with it: 99.9% reduction of inoculum. The data set is classed as cell-based. As to the method: as §1, §2
Where [19] appears, read: Candida albicans, CMCC98001, 24 h.

≈ marks a conversion by molar mass, not a printed value.

The values below come from publication PMC11596972, “Synthesis and Antimicrobial Activity of 3-Alkylidene-2-Indolone Derivatives” (Molecules, 2024).

Turning to `Cc1cccc2c1N(C)C(=O)/C2=C(\O)c1ccc(Cl)cc1` [Compound 10f, (Z)-3-((4-chlorophenyl)(hydroxy)methylene)-1,7-dimethylindolin-2-one], the MIC (usually the lowest concentration that inhibits growth of the organism) in [1] is 2 µg/mL (≈ 6.67 µM); in data set [2] (setting [19]), > 64 µg/mL; in data set [3], 8 µg/mL (≈ 26.7 µM); in data set [5], 0.5 µg/mL (≈ 1.67 µM); in data set [6], 4 µg/mL (≈ 13.3 µM); in data set [9] it was > 64 µg/mL. Also, in [10], the MIC is > 64 µg/mL. Also, in data set [4], the MBC (as a rule, the smallest concentration meeting the test's criterion for killing) came to 32 µg/mL (≈ 107 µM). Further, the IC50 at 48 h in data set [7] and in [8] was > 100 µM in each case.

In the case of `CN1C(=O)/C(=C(\O)c2ccc(F)cc2)c2ccccc21` [Compound 10d, (Z)-3-((4-fluorophenyl)(hydroxy)methylene)-1-methylindolin-2-one], the MIC is 32 µg/mL (≈ 119 µM) in data set [1]; 8 µg/mL (≈ 29.7 µM) in data set [2]; 8 to 16 µg/mL (≈ 29.7 to 59.4 µM) in [2] (setting [19]); 8 µg/mL (≈ 29.7 µM) in [3]; 4 µg/mL (≈ 14.9 µM) in data set [5]; 16 µg/mL (≈ 59.4 µM) in [6]. The MIC in [9] was 64 µg/mL (≈ 238 µM); in data set [10], > 64 µg/mL. Besides, the “antifungal activity (class in words)” value in [2] (C. albicans CMCC 98001) was “moderate antifungal activity”. In data set [11], this compound came in with an MFC/MIC of 2. Moreover, the MFC (usually the lowest tested concentration that kills the fungus rather than only halting it) in data set [11] (CMCC98001, 99.9% reduction of inoculum) came out at 16 µg/mL (≈ 59.4 µM).

On to `O=C1Nc2ccccc2/C1=C\C(=O)c1cc(Cl)c(Cl)cc1O` [Compound X], for which the minimum inhibitory concentration (MIC) in [12] is 12 to 18 µg/mL.

Consider `Cn1c([N+](=O)[O-])cnc1/C=C1/C(=O)Nc2ccc([N+](=O)[O-])cc21` [Compound XI], for which, in data set [13], the minimal inhibitory concentration (MIC) is 0.0625 to 4 µg/mL.

As to `O=C1NC(c2c[nH]c3ccc(O)cc23)=C/C1=C1\C(=O)Nc2ccccc21` [Compound VI, violacein], in [14], the MIC was 6.25 µM (≈ 2.15 µg/mL).

As to `CCC(=O)/C=C1/C(=O)N(CCn2cncn2)c2ccccc21` [IX], the minimum inhibitory concentration (MIC) in data set [15] is 1 µg/mL (≈ 3.37 µM).

As for `CCCN1C(=O)/C(=C(\O)c2ccc(Cl)cc2)c2ccccc21` [Compound 10h, (Z)-3-((4-chlorophenyl)(hydroxy)methylene)-1-propylindolin-2-one], the minimum inhibitory concentration (MIC) is 0.5 µg/mL (≈ 1.59 µM) in data set [1]; 64 µg/mL (≈ 204 µM) in data set [2] (setting [19]); 1 µg/mL (≈ 3.19 µM) in data set [3]; 0.5 µg/mL (≈ 1.59 µM) in [5]; 1 µg/mL (≈ 3.19 µM) in data set [6]; 16 µg/mL (≈ 51 µM) in [9]. In data set [10], inhibition of growth (MIC) required 16 µg/mL (≈ 51 µM). Besides, the minimal bactericidal concentration (MBC) in data set [16] was 32 µg/mL (≈ 102 µM). Besides, the 50% inhibitory concentration (IC50) – broadly, the concentration at which inhibition is half-maximal – at 48 h turned out to be 53.5 µM in [7] and 41.6 µM in data set [8].

Consider `CN(C)c1cccc2cc(S(=O)(=O)N3CCN(c4ccc(/C=C5\C(=O)Nc6ccccc65)cc4)CC3)ccc12` [VII], for which, in [17], the MIC is 12.5 to 50 µg/mL.

On to `CN1C(=O)/C(=C(\O)c2ccc(Cl)cc2)c2cccc(Br)c21` [Compound 10g, (Z)-7-bromo-3-((4-chlorophenyl)(hydroxy)methylene)-1-methylindolin-2-one], for which the MIC in [1] was 0.5 µg/mL (≈ 1.37 µM); in [2] (setting [19]), > 64 µg/mL; in data set [3] it was 1 µg/mL (≈ 2.74 µM); in data set [5], 2 µg/mL (≈ 5.49 µM); in data set [6], 0.5 µg/mL (≈ 1.37 µM); in data set [9], 64 µg/mL (≈ 176 µM). In [10], the MIC was > 64 µg/mL. This compound returned a minimal bactericidal concentration (MBC) in data set [18] of 32 µg/mL (≈ 87.8 µM). The IC50 at 48 h in data set [7] and in [8] was > 100 µM in each case.
